Values of other authors as cited in patent publication US10864174B2, “Method maintaining iron homeostasis with shogaols” (priority 2016, dated 2020).
pIC50: −log10 of the molar value.

What was measured:
[1] = system: HCT-116 human colon cancer cells; details: one value given for both cell lines, read-out: IC50, growth inhibition
[2] = system: H1299 human lung cancer cells; details: one value given for both cell lines, read-out: IC50, growth inhibition
[3] = system: arachidonic acid pathway; details: compared with [6]-gingerol
[4] = system: nitric oxide (NO) synthesis; details: compared with [6]-gingerol

Row | Compound | pIC50 [1] | pIC50 [2] | inhibitory effects on the arachidonic acid pathway [3] | inhibitory effects on nitric oxide (NO) synthesis [4]
1 | CCCCC[C@H](O)CC(=O)CCc1ccc(O)c(OC)c1 [[6]-gingerol, reference compound] | ~3.82 | ~3.82 |  | 
2 | CCCCC/C=C/C(=O)CCc1ccc(O)c(OC)c1 [[6]-shogaol] | ~5.10 | ~5.10 | much stronger inhibitory effects | much stronger inhibitory effects
